Results as given in patent US11384078B2, “5,6-fused-bicyclic compounds and compositions for the treatment of parasitic diseases” (NOVARTIS AG, priority 2017, dated 2022).
Read-outs that look alike come from different tables or passages of the source.

What was measured:
Type in all cases: cell-based
[1] = system: Leishmania donovani axenic amastigote; experiment: In vitro assay for growth inhibition of Leishmania donovani axenic amastigote (Cell TiterGlo luminescence); conditions: Leishmania donovani, L. donovani axenic amastigotes in vitro; read-out: L. donovani amastigotes EC50
Outline: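 Compound-treated wells received 9600 axenic amastigotes in RPMI 1640-based medium at pH 5.5 (37 °C, 5% CO2). Growth measured as ATP luminescence (CellTiter-Glo) after 2-day incubation; DMSO and reference compounds served as controls.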

[2] = system: Trypanosoma brucei brucei (Lister 427) strain; experiment: Assay for growth inhibition against Trypanosoma brucei brucei (Cell TiterGlo ATP luminescence); conditions: T. brucei brucei (Lister 427), read-out: T. Brucei (HAT) EC50
Outline: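 Growth read-out is cellular ATP by CellTiter-Glo luminescence, measured 30 min after reagent addition, following 2-day incubation at 37 °C in CO2. Parasites (10,000/mL, HMI-9 plus 10% FBS and 10% serum plus) faced 10 threefold dilutions in duplicate; IC50 taken as 50% growth inhibition versus untreated.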

[3] = system: L. donovani HU3 strain in mouse peritoneal macrophages; experiment: Assay for inhibition of parasitemia of Leishmania donovani in mouse macrophages (SYBR Green nuclei count, high-content imaging); conditions: Leishmania donovani, Peritoneal macrophage, read-out: L. donovani in Mouse Macrophages EC50
Text: Assay for Inhibition of Parasitemia of Leishmania donovani in Mouse Macrophages
The assay measures the increase in the parasite number in the assayed plate well using a DNA intercalating dye, SYBR Green I® dye (INVITROGEN) to stain Leishmania cell nuclei. L. donovani HU3 strain is propagated by infecting BALB/c mice through tail vein injection with 10^7 Leishmania parasites. Infected mice are allowed to develop infection during 9-11 weeks post-infection. During this time, the parasites accumulate in the infected mouse spleens to large numbers, and the infected mice serve as the source of parasites for the in vitro measurement of compound efficacies. To assay a compound for anti-leishmanial activity, peritoneal macrophages isolated from non-infected BALB/c mice are seeded into 384-well plates at density 2×10^4 macrophages per well in […] of medium (RPM11640, 10% fetal serum albumin, 10 mM HEPES, 1 mM sodium pyruvate, 1% Pen/Strep). Subsequently, the seeded plates are placed into an incubator set to maintain 37° C. temperature and atmosphere with 5% CO2.
The next day, Leishmania parasites are isolated from the spleens of mice infected for 9-11 weeks and 4×10^5 isolated parasites in […] of the above media are added to each plate well. Plates are then returned into incubators and infection is allowed to proceed for 24 hours. After the infection of macrophages is completed, […] of compounds of the invention in the above medium, which also contains 5% DMSO, are added to plate wells containing infected macrophages. At the same time control compounds (miltefosine and amphotericin B) and DMSO are added to plates to serve as the positive and negative controls, respectively. After the compound addition, the plates are returned into incubator and cells infected with parasites are cultured for 5 days. At the end of cultivation, […] of 8% paraformaldehyde is added to plate wells and incubated for 15 min at room temperature. Following the incubation, the paraformaldehyde from plate wells is aspirated, and […] of PBS containing 0.2% Triton X-100 is added to wells. After 15 min incubation, the solution is aspirated from wells again, and replaced with Sybr® Green Dye solution in PBS (1:125,000 dilution). Infected cells are imaged with Evotec Opera high-content microscope, and the number of parasites in well is determined by counting parasite nuclei visualized by staining with Sybr® Green dye.

[4] = system: Trypanosoma cruzi amastigotes cultured in 3T3 fibroblast cells; experiment: Assay for growth inhibition of kinetoplastid parasite Trypanosoma cruzi (beta-galactosidase Tulahuen strain, CPRG readout); conditions: Trypanosoma cruzi, T. cruzi amastigotes in 3T3 fibroblast cells, read-out: Buckner infectious T. cruzi EC50
Outline: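 3T3 fibroblasts (1,000 cells/well) plated overnight, treated with compound in DMSO, then infected with 10,000 Lac-Z-expressing Tulahuen trypomastigotes. After 6 days, 0.6 mM CPRG with 0.6% NP-40 added for 2 h at room temperature; absorbance gives relative intracellular amastigote numbers. Benznidazole and nifurtimox serve as positive controls.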

[5] = L. donovani in mouse peritoneal macrophages

| Compound | EC50 [1] | EC50 ([2]; Trypanosoma brucei) | EC50 [3, 5] | EC50 ([4]; Fibroblast) | EC50 [3] | EC50 [4] | EC50 [2] |
| --- | --- | --- | --- | --- | --- | --- | --- |
| CC(C)OC(=O)Nc1cnc2nn(-c3cc(NC(=O)N4CC(F)(F)C4)ccc3F)cc2c1 [Compound 146, propan-2-yl N-(2-{5-[(3,3-difluoroazetidine-1-carbonyl)amino]-2-fluorophenyl}-2H-pyrazolo[3,4-b]pyridin-5-yl)carbamate] | 0.026 µM | < 0.023 µM | 0.012 µM | 0.085 µM | – | – | – |
| CC(C)c1cnc2nn(-c3cc(NC(=O)CCC(F)(F)F)ccc3F)cc2c1 [Compound 173, 4,4,4-trifluoro-N-(4-fluoro-3-(5-isopropyl-2H-pyrazolo[3,4-b]pyridin-2-yl)phenyl)butanamide] | 0.41 µM | 0.12 µM | 0.5 µM | 0.14 µM | – | – | – |
| Cc1nc(C)c(C(=O)Nc2ccc(F)c(-n3cc4cc(C5CCOCC5)cnc4n3)c2)o1 [Compound 169, N-{4-fluoro-3-[5-(oxan-4-yl)-2H-pyrazolo[3,4-b]pyridin-2-yl]phenyl}-2,4-dimethyl-1,3-oxazole-5-carboxamide] | 0.01 µM | < 0.023 µM | 0.03 µM | 0.014 µM | – | – | – |
| O=C(Nc1ccc(F)c(-n2cc3cc(Br)cnc3n2)c1)N1CCC1 [Compound 129, N-(3-(5-bromo-2H-pyrazolo[3,4-b]pyridin-2-yl)-4-fluorophenyl)azetidine-1-carboxamide] | 0.029 µM | < 0.023 µM | – | – | 0.031 µM | 0.015 µM | – |
| Cc1nc(C)c(C(=O)Nc2ccc(F)c(-n3cc4cc(C(C)C)cnc4n3)c2)o1 [Compound 351, N-(4-fluoro-3-(5-isopropyl-2H-pyrazolo[3,4-b]pyridin-2-yl)phenyl)-2,4-dimethyloxazole-5-carboxamide] | 0.049 µM | 0.031 µM | 0.024 µM | 0.015 µM | – | – | – |
| O=C(Nc1ccc(F)c(-n2cc3cc(Cl)cnc3n2)c1)N1CC(F)C1 [Compound 276, N-(3-{5-chloro-2H-pyrazolo[3,4-b]pyridin-2-yl}-4-fluorophenyl)-3-fluoroazetidine-1-carboxamide] | 0.029 µM | 0.033 µM | 0.1 µM | 0.021 µM | – | – | – |
| O=C(Nc1ccc(F)c(-n2cc3cc(N4CC(F)(F)C4)cnc3n2)c1)N1CC(F)C1 [Compound 298, N-{3-[5-(3,3-difluoroazetidin-1-yl)-2H-pyrazolo[3,4-b]pyridin-2-yl]-4-fluorophenyl}-3-fluoroazetidine-1-carboxamide] | 0.014 µM | 0.004 µM | 0.004 µM | 0.004 µM | – | – | – |
| O=C(Nc1ccc(F)c(-n2cc3cc(N4CC5(CC5)C4)cnc3n2)c1)N1CC(F)C1 [Compound 233, N-[3-(5-{5-azaspiro[2.3]hexan-5-yl}-2H-pyrazolo[3,4-b]pyridin-2-yl)-4-fluorophenyl]-3-fluoroazetidine-1-carboxamide] | 0.013 µM | – | 0.01 µM | 0.005 µM | – | – | 0.004 µM |
| O=C(Nc1ccc(F)c(-n2cc3cc(N4CC5(CCOC5)C4)cnc3n2)c1)N1CC(F)C1 [Compound 202, 3-fluoro-N-[4-fluoro-3-(5-{6-oxa-2-azaspiro[3.4]octan-2-yl}-2H-pyrazolo[3,4-b]pyridin-2-yl)phenyl]azetidine-1-carboxamide] | 0.463 µM | 0.005 µM | 0.01 µM | 0.025 µM | – | – | – |
| CC(C)(C)c1cnc2nn(-c3cc(NC(=O)N4CC(F)(F)C4)ccc3F)cc2c1 [Compound 33, N-(3-{5-tert-butyl-2H-pyrazolo[3,4-b]pyridin-2-yl}-4-fluorophenyl)-3,3-difluoroazetidine-1-carboxamide] | 0.29 µM | 0.28 µM | 0.56 µM | 0.72 µM | – | – | – |
| CC(C)c1cnc2nn(-c3cc(NC(=O)c4cnc(C5CC5)o4)ccc3F)cc2c1 [Compound 75, 2-cyclopropyl-N-{4-fluoro-3-[5-(propan-2-yl)-2H-pyrazolo[3,4-b]pyridin-2-yl]phenyl}-1,3-oxazole-5-carboxamide] | 0.2 µM | 0.17 µM | 0.17 µM | 0.12 µM | – | – | – |
| O=C(Nc1ccc(F)c(-n2cc3cc(CC(F)(F)F)cnc3n2)c1)N1CC[C@@H](F)C1 [Compound 162, (3R)-3-fluoro-N-{4-fluoro-3-[5-(2,2,2-trifluoroethyl)-2H-pyrazolo[3,4-b]pyridin-2-yl]phenyl}pyrrolidine-1-carboxamide] | 0.007 µM | < 0.023 µM | 0.0045 µM | 0.0018 µM | – | – | – |
| O=C(Nc1ccc(F)c(-n2cc3cc(N4CC(F)(F)C4)cnc3n2)c1)N1CCCC1 [Compound 338, N-{3-[5-(3,3-difluoroazetidin-1-yl)-2H-pyrazolo[3,4-b]pyridin-2-yl]-4-fluorophenyl}pyrrolidine-1-carboxamide] | 0.005 µM | 0.003 µM | 0.002 µM | 0.003 µM | – | – | – |
| O=C(Nc1ccc(F)c(-n2cc3cc(C4CC4)cnc3n2)c1)N1CC(F)(F)C1 [Compound 29, N-(3-{5-cyclopropyl-2H-pyrazolo[3,4-b]pyridin-2-yl}-4-fluorophenyl)-3,3-difluoroazetidine-1-carboxamide] | 0.0082 µM | < 0.023 µM | 0.0097 µM | 0.011 µM | – | – | – |
| O=C(Nc1ccc(F)c(-n2cc3cc(-c4ccc(F)cn4)cnc3n2)c1)N1CC(F)C1 [Compound 329, 3-fluoro-N-{4-fluoro-3-[5-(5-fluoropyridin-2-yl)-2H-pyrazolo[3,4-b]pyridin-2-yl]phenyl}azetidine-1-carboxamide] | 0.001 µM | 0.002 µM | 0.002 µM | 0.001 µM | – | – | – |
| Cc1nc(C)c(C(=O)Nc2ccc(F)c(-n3cc4cc(N5CCOCC5)cnc4n3)c2)o1 [Compound 158, N-{4-fluoro-3-[5-(morpholin-4-yl)-2H-pyrazolo[3,4-b]pyridin-2-yl]phenyl}-2,4-dimethyl-1,3-oxazole-5-carboxamide] | 0.016 µM | < 0.023 µM | 0.016 µM | 0.015 µM | – | – | – |
| O=C(Nc1ccc(F)c(-n2cc3cc(-c4ccc(F)cn4)cnc3n2)c1)N1CCC1 [Compound 330, N-{4-fluoro-3-[5-(5-fluoropyridin-2-yl)-2H-pyrazolo[3,4-b]pyridin-2-yl]phenyl}azetidine-1-carboxamide] | 0.001 µM | 0.001 µM | 0.002 µM | 0.001 µM | – | – | – |
| CC(C)c1cnc2nn(-c3cc(NC(=O)c4ccco4)ccc3F)cc2c1 [Compound 196, N-{4-fluoro-3-[5-(propan-2-yl)-2H-pyrazolo[3,4-b]pyridin-2-yl]phenyl}furan-2-carboxamide] | 0.076 µM | < 0.023 µM | 27 µM | 0.012 µM | – | – | – |
| CC(C)c1cnc2nn(-c3cc(NC(=O)c4ccc(F)cn4)ccc3F)cc2c1 [Compound 67, 5-fluoro-N-{4-fluoro-3-[5-(propan-2-yl)-2H-pyrazolo[3,4-b]pyridin-2-yl]phenyl}pyridine-2-carboxamide] | 0.21 µM | > 50 µM | 0.31 µM | 0.042 µM | – | – | – |
| O=C(Nc1ccc(F)c(-n2cc3cc(-c4c[nH]cn4)cnc3n2)c1)N1CC(F)C1 [Compound 295, 3-fluoro-N-{4-fluoro-3-[5-(1H-imidazol-4-yl)-2H-pyrazolo[3,4-b]pyridin-2-yl]phenyl}azetidine-1-carboxamide] | 0.292 µM | 0.038 µM | 1.97 µM | 4.29 µM | – | – | – |
| CCOC1CC1C(=O)Nc1ccc(F)c(-n2cc3cc(C(C)C)cnc3n2)c1 (stereo not drawn) [Compound 207, 2-ethoxy-N-{4-fluoro-3-[5-(propan-2-yl)-2H-pyrazolo[3,4-b]pyridin-2-yl]phenyl}cyclopropane-1-carboxamide] | 1.83 µM | 1.82 µM | 2.06 µM | 1.27 µM | – | – | – |
